According to patent US20240285630A1, “Methods and compositions for improving exercise performance” (MEZZION PHARMA CO., LTD., priority 2021, published 2024):

Key:
[1] = tested on: adolescents with Fontan physiology; experiment: FUEL Trial serum brain-type natriuretic peptide (BNP) level; assay type: in vivo, human; details: ANCOVA; listed as udenafil
Source text: Baseline clinical testing completed before drug initiation included a blood draw to measure brain-type natriuretic peptide (BNP) level, a cardiopulmonary exercise test (CPET) using a standardized cycle ergometer ramp protocol, a standardized echocardiogram, and an assessment of peripheral vascular function using peripheral arterial tonometry (PAT) measured by finger cuff (EndoPAT; Itamar Medical, Israel). Participants who achieved maximal effort, defined as respiratory exchange ratio (RER)≥1.10 at peak exercise during CPET, were eligible for randomization and study drug initiation. […] End-of-study clinical testing included repeat measurement of serum BNP, CPET, echocardiogram, and PAT.

[2] = tested on: adolescents with Fontan physiology; experiment: FUEL Trial echocardiographic myocardial performance index (MPI), blood pool Doppler; assay type: in vivo, human
Source text: Generally speaking, MPI (also referred to as the Doppler-derived index or Tei Index) is a measure of ventricular systolic and diastolic function as determined by a focused echocardiogram. It combines systolic and diastolic time intervals to assess heart function. More specifically, MPI can be used to assess ventricular performance represented by a numeric value using cardiac time intervals. This numeric value equals the sum of isovolumetric contraction time (ICT) and isovolumetric relaxation time (IRT) divided by ejection time (ET) and can be determined for either the left or right ventricle. Pellett, A. A., et al.: The Tei Index: Methodology and Disease. State Values. Echocardiography: A Jrnl. of CV Ultrasound & Allied Tech. 21(7):669-672 (2004); and Ulugay, A., Tatli E.: Myocardial performance index. Anadolu Kardiyol Derg. 8(2):143-8 (April 2008), both of which are incorporated herein by reference in their entireties. In the FUEL Trial, the MPI measured the performance of the single functioning ventricle. Thus, the MPI results from the FUEL Trial were determined by velocities obtained from blood pool Doppler assessment of the inflow and outflow tract of the functioning single ventricle. In other words, the FUEL Trial MPI was determined by measuring the cardiac time intervals using pulsed-wave Doppler velocity spectra of the ventricular inflow and outflow of the single functioning ventricle.
Echocardiograms were performed by sonographers with specific training for this protocol. The primary outcome of interest was MPI using Doppler-based measures of inflow and outflow duration. The duration of inflow into the dominant ventricle and outflow across the dominant semilunar valve were measured and used to calculate MPI using the standard formula. Tei C, Ling L H, Hodge D O, et al.: New index of combined systolic and diastolic myocardial performance: a simple and reproducible measure of cardiac function-a study in normals and dilated cardiomyopathy. J Cardiol, 26(6):357-66 (1995); and Pellet A A et al.: The Tei Index: Methodology and Disease State Values. Echocardiography: A Jrnl Of CV Ultrasound & Allied Tech, 21(7):669-672 (2004). Additional tissue Doppler images were obtained and used to calculate the tissue Doppler based MPI as previously described. Harada K, Tamura M, Toyono M et al.: Comparison of the right ventricular Tei index by tissue Doppler imaging to that obtained by pulsed Doppler in children without heart disease. Am J Cardiol, 90(5):566-9 (2002).
Whenever possible, three measurements were made and the mean duration was used for the calculation.
Each subject underwent an echocardiogram at the start and finish of the 26 weeks. […] Table 3. […] The change in the MPI was determined by velocities obtained from blood pool Doppler assessment of the inflow and outflow tract of the single functioning dominant ventricle. All measurements were made by the echocardiography core lab at the Children's Hospital of Wisconsin.

CCCOc1ccc(S(=O)(=O)NCCC2CCCN2C)cc1-c1nc2c(CCC)nn(C)c2c(=O)[nH]1 (stereo not drawn) [Udenafil, udenafil]
Log brain natriuretic peptide, difference LS Mean (SE), udenafil vs placebo [1]: not different between groups
MPI, median of the difference Week 26 - baseline ([2]; ITT population): −0.01
MPI difference Week 26 - baseline, LS Mean Dif A − B (SE), udenafil minus placebo ([2]; ITT population, ANCOVA): −0.03 (0.014)
MPI at Week 26, LS Mean Dif A − B (SE), udenafil minus placebo ([2]; ITT population, ANOVA): −0.04 (0.018)
MPI at Week 26, mean ([2]; ITT population, N=146): 146: 0.42
MPI, difference Week 26 - baseline, mean ([2]; all participants with paired data n=122, decrease shows improvement, p=0.028 vs placebo): −0.02
MPI, difference in change (treatment - placebo) ([2]; baseline peak VO2 <80% predicted, N=189): −0.04
MPI, difference in change (treatment - placebo) ([2]; baseline peak VO2 ≥80% predicted, N=60): 0.01
MPI, 26 week - baseline ([2]; excluding those with baseline peak VO2 ≥80% predicted, n=94): −0.03
